Measurements published in paper PMC12794188, “Maternal–Fetal Transfer and Toxicokinetics of 2,2′,5,5′-Tetrachlorobiphenyl, [^14C]-PCB52, Following Intratracheal Administration” (Chemical Research in Toxicology, 2025).

Assay: Toxicokinetics and tissue disposition of total [14C] radioactivity after a single intratracheal dose of [14C]-PCB52 (0.157 mg/kg) in pregnant rats at GD 11±1
Assay type: in vivo, Sprague–Dawley rats
Experimental: Female Sprague–Dawley rats (8 weeks old) weighing 237–269.7 g (mean = 247.5 g) (Envigo RMS, LLC, Indianapolis, IN) were used for this study. All animal experiments were performed following the protocols evaluated and approved by the University of Iowa Institutional Animal Care and Use Committee (approval number 3091097). After arrival, the animals were acclimated for 7 days. The animals were housed in a light and temperature-controlled environment with ad libitum access to food and water during quarantine and throughout the study. Timed pregnancy was achieved by harem mating. , Briefly, one male and two female rats were placed together in the evening and checked for vaginal plug the following day. If vaginal plug was present, the male was removed from the breeding cage, and the gestation day 0 (GD 0), 0-day post coitum was assigned. Pregnancies were confirmed by ultrasound scan at GD 9. The dams were exposed at GD 11 (±1 day) to capture the period of early organogenesis and hormonal function, which falls within week 3 of human embryonic development. ,− On the day of the experiment, pregnant rats were intratracheally administered an average of 40 μg (range, 35–45 μg) of [^14C]-PCB52 in 100 μL of exposure solution. Although the dose used in this study exceeded the tolerable daily intake (TDI) of PCBs for healthy individuals, which is 1.6 μg per day for an individual weighing 80 kg, the use of higher acute doses has been established in toxicological studies intended for risk assessment. The intratracheal instillation method was chosen for administering [^14C]-PCB52 to represent inhalation exposures, capture exhaled concentration, and efficiently utilize the limited availability of the cost-intensive radiolabeled PCB52. , Although inhalation exposure would better represent real-world exposures to airborne LC-PCBs, it would not allow us to accurately measure the amount of PCB52 exhaled into the air after exposure and is experimentally infeasible. […] All intratracheal instillations were done under light anesthesia, achieved using a 4% isoflurane concentration via a Fortec vaporizer (Cyprane, Keighley, UK). The animals recovered from anesthesia within 1 min. Subsequently, the animals were housed within a cylindrical glass chamber measuring 2 L in volume, equipped with glass drainage mechanisms to facilitate urine collection and a metallic screen to segregate urine from feces (as in Figure S1). Air was drawn from the chamber at 6.0 L/min through a cartridge containing the XAD-2 polymeric resin to capture any exhaled [^14C]-PCB52. For periods longer than 24 h postexposure, exposed dams were placed in a metabolic cage, which was fitted with a cartridge containing XAD-2 to capture exhaled [^14C]-PCB52 as in other end points.
Maternal blood, urine, and feces samples were collected immediately before and at 0.21, 1.67, 12, 24, 48, and 96 h after lung dosing. The exposed dams were euthanized using 4% isoflurane, followed by cervical dislocation and exsanguination via a cardiac puncture. Euthanasia was consistently performed during the light cycle. Dams’ fur was wiped and analyzed for radioactivity. Using the retro-orbital blood collection method, 0.5–1.5 mL ([…] of an exposed pregnant rat’s body weight) of blood sample was collected from each of the dams until the individual dams were necropsied for whole-body tissue harvesting. At the end of the exposure period, the chamber’s interior walls were rinsed separately with water and acetone/hexane (25 – 45 mL) and wiped to measure residues. From the collected whole blood samples, 100 μL were aliquoted into three vials each, and the remaining blood was allowed to clot at room temperature before being centrifuged to yield serum. The placentas, developing fetuses, and whole-body tissue samples were harvested immediately before exposure and at 0.21, 1.67, 12, 24, and 96 h postexposure. […]

[1] = AF (amniotic fluid)/MS (maternal serum)
[2] = Adipose tissue, 0.21 h post-exposure
[3] = Adipose tissue, 1.67 h post-exposure
[4] = Adipose tissue, 12 h post-exposure
[5] = Brown adipose, 0.21 h post-exposure
[6] = Brown adipose, 1.67 h post-exposure
[7] = Brown adipose, 12 h post-exposure
[8] = Brown adipose, 24 h post-exposure
[9] = Brown adipose, 96 h post-exposure
[10] = Esophagus, 0.21 h post-exposure
[11] = Esophagus, 1.67 h post-exposure
[12] = Mammary glands, 0.21 h post-exposure
[13] = Mammary glands, 1.67 h post-exposure
[14] = Mammary glands, 12 h post-exposure
[15] = Mammary glands, 24 h post-exposure
[16] = Mammary glands, 96 h post-exposure
[17] = Matter in duodenum, 0.21 h post-exposure
[18] = Matter in duodenum, 1.67 h post-exposure
[19] = Matter in duodenum, 12 h post-exposure
[20] = Matter in duodenum, 24 h post-exposure
[21] = Matter in duodenum, 96 h post-exposure
[22] = Matter in intestine, 0.21 h post-exposure
[23] = Matter in intestine, 1.67 h post-exposure
[24] = Matter in intestine, 12 h post-exposure
[25] = Matter in intestine, 24 h post-exposure
[26] = Matter in intestine, 96 h post-exposure
[27] = Matter in stomach, 0.21 h post-exposure
[28] = Matter in stomach, 1.67 h post-exposure
[29] = Matter in stomach, 12 h post-exposure
[30] = Matter in stomach, 24 h post-exposure
[31] = Matter in stomach, 96 h post-exposure

## Clc1ccc(Cl)c(-c2cc(Cl)ccc2Cl)c1 [PCB52, 2,2′,5,5′-Tetrachlorobiphenyl]
[1]
  AUC0‑∞ ratio: 0.050
  AUC0–96h ratio: 0.053
  C max ratio: 0.043
AF (amniotic fluid)/brain
  AUC0–96h ratio: 0.079
  C max ratio: 0.071
Adipose tissue
  AUC_%Extrap: 42.32%
  Terminal elimination half-life (t1/2): 72.85 h
[2]
  Conc. per mg wet tissue: 8.78 dpm/mg
  Percent tissue distribution: 10.92%
[3]
  Conc. per mg wet tissue: 19.77 dpm/mg
  Percent tissue distribution: 33.81%
[4]
  Conc. per mg wet tissue: 27.29 dpm/mg
  Percent tissue distribution: 26.32%
Adipose tissue, 24 h post-exposure
  Percent tissue distribution: 28.25%
Adrenal gland
  AUC_%Extrap: 74.40%
  Terminal elimination half-life (t1/2): 253.59 h
Bladder
  AUC_%Extrap: 40.50%
  Terminal elimination half-life (t1/2): 57.81 h
Brain, 0.21 h post-exposure
  Conc. per mg wet tissue: 1.44 dpm/mg
  Percent tissue distribution: 0.79%
Brain, 1.67 h post-exposure
  Conc. per mg wet tissue: 4.90 dpm/mg
  Percent tissue distribution: 0.52%
Brain, 12 h post-exposure
  Conc. per mg wet tissue: 0.67 dpm/mg
  Percent tissue distribution: 0.08%
Brain, 24 h post-exposure
  Conc. per mg wet tissue: 0.64 dpm/mg
  Percent tissue distribution: 0.07%
Brain, 96 h post-exposure
  Conc. per mg wet tissue: 0.67 dpm/mg
  Percent tissue distribution: 0.10%
Bronchi, 0.21 h post-exposure
  Conc. per mg wet tissue: 81.91 dpm/mg
  Percent tissue distribution: 0.66%
Bronchi, 1.67 h post-exposure
  Conc. per mg wet tissue: 33.51 dpm/mg
  Percent tissue distribution: 0.20%
Bronchi, 12 h post-exposure
  Conc. per mg wet tissue: 20.05 dpm/mg
  Percent tissue distribution: 0.10%
Bronchi, 24 h post-exposure
  Conc. per mg wet tissue: 18.87 dpm/mg
  Percent tissue distribution: 0.08%
Bronchi, 96 h post-exposure
  Conc. per mg wet tissue: 1.44 dpm/mg
  Percent tissue distribution: 0.01%
[5]
  Conc. per mg wet tissue: 40.87 dpm/mg
  Percent tissue distribution: 0.21%
[6]
  Conc. per mg wet tissue: 120.53 dpm/mg
  Percent tissue distribution: 0.87%
[7]
  Conc. per mg wet tissue: 27.78 dpm/mg
  Percent tissue distribution: 0.00%
[8]
  Conc. per mg wet tissue: 23.09 dpm/mg
  Percent tissue distribution: 0.18%
[9]
  Conc. per mg wet tissue: 4.17 dpm/mg
  Percent tissue distribution: 0.00%
Colon tissue
  AUC_%Extrap: 22.17%
  Terminal elimination half-life (t1/2): 40.46 h
Colon, 0.21 h post-exposure
  Conc. per mg wet tissue: 9.24 dpm/mg
  Percent tissue distribution: 0.35%
Colon, 1.67 h post-exposure
  Conc. per mg wet tissue: 5.24 dpm/mg
  Percent tissue distribution: 0.28%
Colon, 12 h post-exposure
  Conc. per mg wet tissue: 5.56 dpm/mg
  Percent tissue distribution: 0.41%
Colon, 24 h post-exposure
  Conc. per mg wet tissue: 9.18 dpm/mg
  Percent tissue distribution: 0.51%
Colon, 96 h post-exposure
  Conc. per mg wet tissue: 1.87 dpm/mg
  Percent tissue distribution: 0.16%
Duodenum
  AUC_%Extrap: 14.10%
  Terminal elimination half-life (t1/2): 34.84 h
  Tmax: ≤ 0.21 h
Duodenum, 0.21 h post-exposure
  Conc. per mg wet tissue: 21.37 dpm/mg
  Percent tissue distribution: 0.71%
Duodenum, 1.67 h post-exposure
  Conc. per mg wet tissue: 8.50 dpm/mg
  Percent tissue distribution: 0.25%
Duodenum, 12 h post-exposure
  Conc. per mg wet tissue: 3.28 dpm/mg
  Percent tissue distribution: 0.12%
Duodenum, 24 h post-exposure
  Conc. per mg wet tissue: 4.69 dpm/mg
  Percent tissue distribution: 0.17%
Duodenum, 96 h post-exposure
  Conc. per mg wet tissue: 0.83 dpm/mg
  Percent tissue distribution: 0.05%
Esophagus
  AUC_%Extrap: 11.71%
  Terminal elimination half-life (t1/2): 46.31 h
[10]
  Conc. per mg wet tissue: 72.35 dpm/mg
  Percent tissue distribution: 0.51%
[11]
  Conc. per mg wet tissue: 5.67 dpm/mg
  Percent tissue distribution: 0.06%
Esophagus, 12 h post-exposure
  Conc. per mg wet tissue: 1.09 dpm/mg
  Percent tissue distribution: 0.01%
Esophagus, 24 h post-exposure
  Conc. per mg wet tissue: 0.76 dpm/mg
  Percent tissue distribution: 0.01%
Esophagus, 96 h post-exposure
  Conc. per mg wet tissue: 0.25 dpm/mg
  Percent tissue distribution: 0.003%
Fetus
  AUC_%Extrap: 9.23%
  Terminal elimination half-life (t1/2): 34.78 h
  maternal serum exposure ratio: 0.27
Heart
  AUC_%Extrap: 6.21%
  Terminal elimination half-life (t1/2): 26.21 h
Heart, 96 h post-exposure
  Conc. per mg wet tissue: 0.61 dpm/mg
Kidney
  AUC_%Extrap: 13.09%
  Terminal elimination half-life (t1/2): 35.41 h
Liver
  AUC_%Extrap: 14.37%
  Terminal elimination half-life (t1/2): 42.13 h
Liver, 0.21 h post-exposure
  Conc. per mg wet tissue: 55.77 dpm/mg
  Percent tissue distribution: 17.36%
Liver, 1.67 h post-exposure
  Conc. per mg wet tissue: 23.78 dpm/mg
  Percent tissue distribution: 6.58%
Liver, 12 h post-exposure
  Conc. per mg wet tissue: 11.09 dpm/mg
  Percent tissue distribution: 1.88%
Liver, 24 h post-exposure
  Conc. per mg wet tissue: 8.22 dpm/mg
  Percent tissue distribution: 1.63%
Liver, 96 h post-exposure
  Conc. per mg wet tissue: 1.16 dpm/mg
  Percent tissue distribution: 0.41%
Lung
  AUC_%Extrap: 4.66%
  Terminal elimination half-life (t1/2): 22.05 h
Mammary glands
  AUC_%Extrap: 15.15%
  Terminal elimination half-life (t1/2): 34.16 h
[12]
  Conc. per mg wet tissue: 5.39 dpm/mg
  Percent tissue distribution: 0.28%
[13]
  Conc. per mg wet tissue: 2.46 dpm/mg
  Percent tissue distribution: 1.21%
[14]
  Conc. per mg wet tissue: 0.74 dpm/mg
  Percent tissue distribution: 1.18%
[15]
  Conc. per mg wet tissue: 1.55 dpm/mg
  Percent tissue distribution: 0.90%
[16]
  Conc. per mg wet tissue: 1.67 dpm/mg
  Percent tissue distribution: 0.18%
Matter in Colon
  AUC_%Extrap: 23.30%
  Terminal elimination half-life (t1/2): 40.00 h
Matter in amp colon
  AUC_%Extrap: 13.09%
  Terminal elimination half-life (t1/2): 30.46 h
Matter in duodenum
  AUC_%Extrap: 26.66%
  Terminal elimination half-life (t1/2): 34.63 h
[17]
  Conc. per mg wet tissue: 6.81 dpm/mg
  Percent tissue distribution: 0.44%
[18]
  Conc. per mg wet tissue: 51.01 dpm/mg
  Percent tissue distribution: 0.57%
[19]
  Conc. per mg wet tissue: 14.38 dpm/mg
  Percent tissue distribution: 0.16%
[20]
  Conc. per mg wet tissue: 16.72 dpm/mg
  Percent tissue distribution: 0.19%
[21]
  Conc. per mg wet tissue: 0.68 dpm/mg
  Percent tissue distribution: 0.33%
Matter in intestine
  AUC_%Extrap: 2.18%
  Terminal elimination half-life (t1/2): 17.41 h
[22]
  Conc. per mg wet tissue: 10.76 dpm/mg
  Percent tissue distribution: 0.70%
[23]
  Conc. per mg wet tissue: 1.07 dpm/mg
  Percent tissue distribution: 4.97%
[24]
  Conc. per mg wet tissue: 0.75 dpm/mg
  Percent tissue distribution: 1.53%
[25]
  Conc. per mg wet tissue: 13.86 dpm/mg
  Percent tissue distribution: 2.58%
[26]
  Conc. per mg wet tissue: 0.41 dpm/mg
  Percent tissue distribution: 0.02%
Matter in stomach
  AUC_%Extrap: 4.07%
  Terminal elimination half-life (t1/2): 16.50 h
[27]
  Conc. per mg wet tissue: 28.20 dpm/mg
  Percent tissue distribution: 0.47%
[28]
  Conc. per mg wet tissue: 5.71 dpm/mg
  Percent tissue distribution: 0.06%
[29]
  Conc. per mg wet tissue: 1.71 dpm/mg
  Percent tissue distribution: 0.09%
[30]
  Conc. per mg wet tissue: 1.57 dpm/mg
  Percent tissue distribution: 1.52%
[31]
  Conc. per mg wet tissue: 0.18 dpm/mg
  Percent tissue distribution: 0.04%
Muscle
  AUC_%Extrap: 96.68%
  Terminal elimination half-life (t1/2): 1231.42 h
Muscle, 0.21 h post-exposure
  Conc. per mg wet tissue: 1.58 dpm/mg
  Percent tissue distribution: 28.65%
Muscle, 96 h post-exposure
  Conc. per mg wet tissue: 1.58 dpm/mg
Ovary
  AUC_%Extrap: 25.93%
  Terminal elimination half-life (t1/2): 46.53 h
Ovary, 0.21 h post-exposure
  Conc. per mg wet tissue: 19.85 dpm/mg
